ChEMBL document CHEMBL1128038, “Acyl CoA:cholesterol acyltransferase (ACAT) inhibitors: ureas bearing heterocyclic groups bioisosteric for an imidazole” (Bioorg Med Chem Lett, 1995)

How the values were obtained:
[1] = biological target: T1, Sterol O-acyltransferase 1 (Rattus norvegicus, UniProt O70536); experiment: In vitro inhibition of acyl coenzyme A:cholesterol acyltransferase (ACAT) in rat hepatic microsomes by using AIV assay.; parameters: species or system Liver
T1 sequence (O70536 whole entry): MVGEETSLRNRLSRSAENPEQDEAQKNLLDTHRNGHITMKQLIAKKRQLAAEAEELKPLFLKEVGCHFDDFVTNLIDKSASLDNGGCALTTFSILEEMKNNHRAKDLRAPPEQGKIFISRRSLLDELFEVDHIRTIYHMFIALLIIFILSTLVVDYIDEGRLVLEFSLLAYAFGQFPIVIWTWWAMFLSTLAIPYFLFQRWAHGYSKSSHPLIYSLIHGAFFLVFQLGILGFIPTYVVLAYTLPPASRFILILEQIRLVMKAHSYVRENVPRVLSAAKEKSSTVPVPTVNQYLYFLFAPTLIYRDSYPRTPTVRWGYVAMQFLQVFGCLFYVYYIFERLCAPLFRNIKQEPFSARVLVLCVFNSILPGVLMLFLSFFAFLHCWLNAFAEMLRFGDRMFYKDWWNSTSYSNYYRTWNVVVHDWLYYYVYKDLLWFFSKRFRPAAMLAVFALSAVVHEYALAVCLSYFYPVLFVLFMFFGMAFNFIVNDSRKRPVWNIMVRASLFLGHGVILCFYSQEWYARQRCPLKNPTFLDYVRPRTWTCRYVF

[2] = Partition coefficient (logP); assay type: physicochemical; details: octanol/water
[3] = biological target: T2, Sterol O-acyltransferase 1 (Mus musculus, UniProt Q61263); experiment: Inhibition of acyl coenzyme A:cholesterol acyltransferase (ACAT) in J774 Macrophage cell culture by using J774 assay.; assay type: cell-based
T2 sequence (Q61263 whole entry): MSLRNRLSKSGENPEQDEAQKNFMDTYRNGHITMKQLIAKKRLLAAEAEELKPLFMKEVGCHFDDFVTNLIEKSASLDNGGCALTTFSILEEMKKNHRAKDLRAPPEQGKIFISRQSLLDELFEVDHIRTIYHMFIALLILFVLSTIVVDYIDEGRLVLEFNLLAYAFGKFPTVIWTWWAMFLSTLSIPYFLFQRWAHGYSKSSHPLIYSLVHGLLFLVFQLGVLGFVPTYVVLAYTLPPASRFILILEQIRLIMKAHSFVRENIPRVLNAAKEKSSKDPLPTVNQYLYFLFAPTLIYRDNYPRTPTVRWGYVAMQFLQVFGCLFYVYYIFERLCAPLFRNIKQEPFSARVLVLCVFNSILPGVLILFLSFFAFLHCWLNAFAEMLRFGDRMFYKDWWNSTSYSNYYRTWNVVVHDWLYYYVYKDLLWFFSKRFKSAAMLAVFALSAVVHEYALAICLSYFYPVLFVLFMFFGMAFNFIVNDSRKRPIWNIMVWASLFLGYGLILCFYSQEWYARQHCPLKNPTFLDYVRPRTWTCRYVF

[4] = biological target: T2, Sterol O-acyltransferase 1; experiment: Inhibition of Acyl coenzyme A:cholesterol acyltransferase (ACAT) in J774 Macrophage cell culture was measured by using J774 assay; IA means the compound was inactive; assay type: cell-based
[5] = biological target: T1, Sterol O-acyltransferase 1; experiment: In vitro inhibition of Acyl coenzyme A:cholesterol acyltransferase (ACAT) in rat hepatic microsomes was measured by using AIV assay; IA means the compound was inactive; parameters: species or system Liver
[6] = biological target: T2, Sterol O-acyltransferase 1; experiment: Inhibition of Acyl coenzyme A:cholesterol acyltransferase (ACAT) in J774 Macrophage cell culture was measured by using J774 assay; IA means inactive; assay type: cell-based
[7] = biological target: T1, Sterol O-acyltransferase 1; experiment: In vitro inhibition of ACYL CoA:Cholesterol Acyltransferase (ACAT) in rat hepatic microsomes was measured by using AIV assay; parameters: species or system Liver

Row | Compound | IC50 ([1]; read-out: IC50) [µM] | logP [2] | IC50 [3] [µM] | other results
1 | CCCCCCN(CCOCCSc1nc2c[nH]cnc-2n1)C(=O)NC(C)C | 2 | 3.72 | 60 | –
2 | CCCCCCCN(CCCCCSc1nc(N)cc(O)n1)C(=O)NC(C)C | 74 | 5.61 | 9.3 | –
3 | CCCCCCCN(CCCCCSc1nc[nH]n1)C(=O)Nc1ccc(F)cc1F | 5 | – | 27.3 | –
4 | CCCCCCCN(CCCCCSc1[nH]cnc2ncnc1-2)C(=O)NC(C)C | 29.7 | 4.72 | 4.72 | –
5 | CCCCCCCN(CCCCCSc1nc(O)c2ccccc2n1)C(=O)Nc1ccc(F)cc1F | 4 | 6.17 | 11 | –
6 | CCCCCCN(CCCCCSc1nc2ccc[nH]c-2n1)C(=O)Nc1ccc(F)cc1F | 3.6 | 6.22 | 5.47 | –
7 | CCCCCCN(CCCCCSc1nc2ccccc2n1C)C(=O)Nc1ccc(F)cc1F | 2.49 | 7.47 | 3.02 | –
8 | CCCCCCCN(CCCCCSC1N=C(c2ccccc2)c2ccccc2NC1=O)C(=O)NC(C)C (stereo not drawn) | – | 6.99 | 6.53 | –
9 | CCCCCCN(CCCCCSc1nc2cc(C)ccc2[nH]1)C(=O)Nc1ccc(F)cc1F | 1 | 7.79 | 2.06 | –
10 | CCCCCCCN(CCCCCSc1ccccn1)C(=O)Nc1ccc(F)cc1F | 4 | 6.41 | 4.51 | –
11 | CCCCCCCN(CCCCCSc1nnc(-c2ccccc2)n1-c1ccccc1)C(=O)Nc1ccc(F)cc1F | 19 | 8.64 | 4.8 | –
12 | CCCCCCCN(CCCCCSc1n[nH]c(-c2ccccc2)n1)C(=O)Nc1ccc(F)cc1F | 4 | 6.78 | 4.18 | –
13 | CCCCCCCN(CCCCCSc1nc(N)c2c[nH]nc2n1)C(=O)NC(C)C | – | 5.14 | – | IC50 [4]: Not Active; IC50 [1]: Not Active
14 | CCCCCCCN(CCCCCSc1ncccn1)C(=O)Nc1ccc(F)cc1F | 3.3 | 5.41 | 4.37 | –
15 | CCCCCCCN(CCCCCSc1nc(O)cc(Cc2ccccc2)n1)C(=O)NC(C)C | 9.2 | 7.4 | 25 | –
16 | CCCCCCN(CCCCCSc1nc2ccccc2[nH]1)C(=O)Nc1ccc(F)cc1F | 0.5 | 7.29 | 3.1 | –
17 | CCCCCCCN(CCCCCSc1nnc(-c2ccccc2)c(-c2ccccc2)n1)C(=O)Nc1ccc(F)cc1F | 0.44 | 8.72 | 10.6 | –
18 | CCCCCCCN(CCCCCSc1[nH]cnc2nncc1-2)C(=O)NC(C)C | 7.13 | 5 | 4.35 | –
19 | CCCCCCCN(CCCCCSc1nc(-c2ccccc2)c(-c2ccccc2)n1C)C(=O)Nc1ccc(F)cc1F | – | – | 3.8 | –
20 | CCCCCCCN(CCCCCSc1nc(-c2ccccc2)cn1-c1ccccc1)C(=O)Nc1ccc(F)cc1F | 7.2 | – | 6.02 | –

Row | Compound | IC50 ([1]; read-out: IC50) [µM] | logP [2] | IC50 [3] [µM] | other results
21 | CCCCCCN(CCCCCSc1nc2cc(OCC)ccc2s1)C(=O)Nc1ccc(F)cc1F | – | 8.46 | 4.54 | IC50 [5]: Not Active
22 | CCCCCCCN(CCCCCSc1nc(-c2ccccc2)c(-c2ccccc2)n1-c1ccccc1)C(=O)Nc1ccc(F)cc1F | – | – | 54.5 | IC50 [1]: Not Active
23 | CCCCCCN(CCCCCSc1nc2c[nH]cnc-2n1)C(=O)Nc1ccc(F)cc1F | 0.86 | 5.26 | – | IC50 [6]: Not Active
24 | CCCCCCN(CCOCCSc1nc2c[nH]cnc-2n1)C(=O)Nc1ccc(F)cc1F | – | 4.32 | – | IC50 [1]: Not Active
25 | CCCCCCCN(CCCCCSC1N=C(c2ccccc2)c2ccccc2NC1=O)C(=O)Nc1ccc(F)cc1F (stereo not drawn) | – | 7.59 | 6.96 | –
26 | CCCCCCCN(CCCCCSc1nc(-c2ccccc2)c[nH]1)C(=O)Nc1ccc(F)cc1F | – | – | 1.6 | –
27 | CCCCCCCN(CCCCCSc1[nH]cnc2ncnc1-2)C(=O)Nc1ccc(F)cc1F | 0.2 | 5.32 | 5.32 | –
28 | CCCCCCN(CCCCCSc1nc2ccccc2o1)C(=O)Nc1ccc(F)cc1F | 51 | 7.18 | 3.5 | –
29 | CCCCCCCN(CCCCCSc1nc(N)c2c[nH]nc2n1)C(=O)Nc1ccc(F)cc1F | 4.23 | 5.74 | 72.5 | –
30 | CCCCCCN(CCCCCSc1nc2c([nH]1)CCCC2)C(=O)Nc1ccc(F)cc1F | 0.81 | 6.81 | 2.58 | –
31 | CCCCCCN(CCCCCSc1nc2c(=O)n(C)c(=O)n(C)c2[nH]1)C(=O)NC(C)C | 3.6 | 5.1 | 1.53 | –
32 | CCCCCCN(CCCCCSc1nc2cc([N+](=O)[O-])ccc2[nH]1)C(=O)Nc1ccc(F)cc1F | 2 | 7.19 | 8.33 | –
33 | CCCCCCCN(CCCCCSC1=NC(=O)C(c2ccccc2)(c2ccccc2)N1)C(=O)NC(C)C | 2.79 | – | 2.14 | –
34 | CCCCCCCN(CCCCCSc1ncc[nH]1)C(=O)Nc1ccc(F)cc1F | – | – | 5.5 | –
35 | CCCCCCN(CCCCCSc1nc2c[nH]cnc-2n1)C(=O)NC(C)C | 23.7 | 4.66 | 19.1 | –
36 | CCCCCCCN(CCCCCOC1=NC(S)=NC1(c1ccccc1)c1ccccc1)C(=O)NC(C)C | – | – | 2.79 | IC50 [7]: 0.09 µM
37 | CCCCCCN(CCCCCSc1nc2ccc[nH]c-2n1)C(=O)NC(C)C | 7.15 | 5.62 | 7.1 | –
38 | CCCCCCN(CCCCCSc1nc2ccccc2s1)C(=O)Nc1ccc(F)cc1F | 4 | 7.78 | 2.73 | –
39 | CCCCCCCN(CCCCCSc1[nH]cnc2nncc1-2)C(=O)Nc1ccc(F)cc1F | 0.71 | 5.6 | 3.31 | –
